Results on 1 compound are retold here after patent US7981859B2, “Glycopeptide composition with improved antibiotic activity” (Xellia Pharmaceuticals APS, priority 2003, dated 2011).

Experiment [1] relates to Staphylococcus aureus ATCC 6538. As to the kind of experiment: Microbiological potency by agar diffusion. The class given is cell-based. The protocol:
Accordingly, in one embodiment a Teicoplanin composition as described herein, has a higher antibiotic activity than a corresponding Teicoplanin composition that has a %(mg TA3)/(mg TA3+TA2) of 6.5%, where the antibiotic activity is measured by a microbiological agar diffusion assay using Staphylococcus aureus ATCC 6538 as test strain and the measured potential potency (IU per mg TA2+TA3/g composition) is used to calculate the antibiotic activity.
Procedure for the Determination of Microbiological Potency by Agar Diffusion
(§1) Potency of Teicoplanin TA2, TA3-1 alone or in combination was determined by agar diffusion assays. Furthermore, the antimicrobial effect of pure and spiked products was investigated through the determination of the minimum inhibitory concentration (MIC) by a modified “MIC” test in micro titer trays.
The potency test is carried out according to the assay described below. […]
The results are analyzed by reading the zone diameters carefully with a 10× magnification and a precision of 0.1 mm. […]
(§2) Potency of teicoplanin TA2, TA3-1 alone or in combinations was determined by agar diffusion assays as described in example 1. Modified MIC-values in microtitre trays were determined as described in example 1.

The next experiment concerns S. aureus ATCC 6538. As to the kind of experiment: Modified "MIC" test in micro titer trays (liquid medium). It counts as cell-based, Staphylococcus aureus. The protocol:
as §1
Pure TA3-1, (Teicoplanin Material B 96% TA2-X, 4% TA3-1) and mixtures thereof were used. The test strain used was S. aureus ATCC 6538 in final concentrations of 5×10^5/ml and 5×10^4/ml respectively. The test was carried out in micro titer trays as a modification of an ordinary MIC test. Instead of using two-fold dilutions, 0.40-1.20 μg/ml with 0.20 μl divisions and 1.0-4.0 μl/ml with 1.0 μl divisions was used. The trays were incubated at 37° C. The wells were examined after 24 hours and any visible growth was noted.
In order to strengthen the evidence some experiments were performed with a modified antimicrobial analysis of Teicoplanin, spiked with different amounts of TA3-1. It was carried out in liquid medium in contrast to the agar diffusion tests and determined the MIC values. The results are summarized in Table 4, (“MIC”-values of Teicoplanin and/or TA3-1 on S. aureus ATCC6538).
as §2

As for `CC(=O)N[C@H]1[C@H](O[C@@H]2c3ccc(c(Cl)c3)Oc3cc4cc(c3O)Oc3ccc(cc3Cl)C[C@H]3NC(=O)[C@H](N)c5ccc(O)c(c5)Oc5cc(O)cc(c5)[C@H](NC3=O)C(=O)N[C@H]4C(=O)N[C@H]3C(=O)N[C@@H]2C(=O)N[C@H](C(=O)O)c2cc(O)cc(O[C@H]4O[C@H](CO)[C@@H](O)[C@H](O)[C@@H]4O)c2-c2cc3ccc2O)O[C@H](CO)[C@@H](O)[C@@H]1O` [TA3-1, Teicoplanin A3-1], the “Potency IU/mg powder” value in experiment [1] (Example 1, agar diffusion, 2-point assay, potency of the powder as such) turned out to be 570 IU/mg powder. For the same compound, the “potency by agar diffusion (IU/mg powder) compared with Targocid alone” value in experiment [1] (Example 2, FIG. 5, Targocid/TA3-1 solutions mixed at different mass TA3-1%) is listed as “much lower potency”. In addition, the “MIC value relative to Targocid alone (times higher)” value in the experiment on S. aureus ATCC 6538 (Example 2, FIG. 6, MIC in μg powder/ml solution) is on record as 4-5 times. Moreover, the “MIC (μg/ml) 5 × 10^4/ml S.aureus” value with S. aureus ATCC 6538 (inoculum 5 × 10^4/ml, 37° C., read after 24 hours, lowest concentration without visible growth) is 2–3 μg/ml. For the same compound, in the experiment on S. aureus ATCC 6538 (inoculum 5 × 10^5/ml, 37° C., read after 24 hours, lowest concentration without visible growth), the “MIC (μg/ml) 5 × 10^5/ml S.aureus” value is 2–3 μg/ml.
